What was measured:
[1] = molecular target: T1, c-KIT D816V kinase (Homo sapiens, UniProt P10721, D816V); assay: c-KIT D816V kinase Assay; assay type: biochemical; details: enzymatic assay, ATP 200 uM
T1 construct: residues T544-V976 with N-terminal GST fusion; purchased deCODE Biostructures
Outline: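 Coupled assay in which NADH oxidation was tracked as decreasing absorbance at 340 nm, continuously for 5 hours at 30 °C after adding serially diluted compound. Enzyme: cKit residues T544-V976 with N-terminal tag, GST fusion and TEV cleavage site.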

[2] = molecular target: T2, c-KIT VVDV kinase (Homo sapiens, UniProt P10721, D816V/DEL559-560); assay: cKIT-VVDV kinase Assay; assay type: biochemical; details: enzymatic assay; V559+V560 deletions and D816V mutation
T2 construct: This construct contains residues T544-V976 of cKit; GST (N); TEV cleavage site (internal); purchased deCODE Biostructures
T2 sequence (P10721 with tags, fused parts or gaps DEL559-560/D816V): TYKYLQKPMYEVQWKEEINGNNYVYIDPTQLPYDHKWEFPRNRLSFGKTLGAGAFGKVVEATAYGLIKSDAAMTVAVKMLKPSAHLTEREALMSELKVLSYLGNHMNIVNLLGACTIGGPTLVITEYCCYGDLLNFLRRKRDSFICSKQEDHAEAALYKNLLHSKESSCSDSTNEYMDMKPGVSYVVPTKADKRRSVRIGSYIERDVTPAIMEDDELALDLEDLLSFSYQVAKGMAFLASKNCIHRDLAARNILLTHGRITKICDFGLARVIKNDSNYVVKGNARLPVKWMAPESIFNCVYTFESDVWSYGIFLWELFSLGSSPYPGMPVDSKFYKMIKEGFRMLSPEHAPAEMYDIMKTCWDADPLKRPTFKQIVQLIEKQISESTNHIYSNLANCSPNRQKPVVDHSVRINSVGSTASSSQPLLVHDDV
Protocol: In this assay, the oxidation of NADH (measured by decrease in absorbance at 340 nm) was continuously monitored spectrophotometrically. […] The inhibition reaction was started by mixing serial diluted test compound with the above reaction mixture. The absorption at 340 nm was monitored continuously for 5 hours at 30 °C on Synergy 2 plate reader (BioTech). […] The protein construct was prepared by deCODE Biostructures using procedures known in the art. […] This construct is identical to Seq ID no.

[3] = molecular target: T3, c-KIT T670I kinase (Homo sapiens, UniProt P10721, T670I); assay: c-KIT T670I kinase assay; assay type: biochemical; details: enzymatic assay
T3 construct: The construct contains residues T544-V976 of cKit; GST (N); TEV cleavage site (internal); purchased deCODE Biostructures
T3 sequence (P10721 544-976 T670I): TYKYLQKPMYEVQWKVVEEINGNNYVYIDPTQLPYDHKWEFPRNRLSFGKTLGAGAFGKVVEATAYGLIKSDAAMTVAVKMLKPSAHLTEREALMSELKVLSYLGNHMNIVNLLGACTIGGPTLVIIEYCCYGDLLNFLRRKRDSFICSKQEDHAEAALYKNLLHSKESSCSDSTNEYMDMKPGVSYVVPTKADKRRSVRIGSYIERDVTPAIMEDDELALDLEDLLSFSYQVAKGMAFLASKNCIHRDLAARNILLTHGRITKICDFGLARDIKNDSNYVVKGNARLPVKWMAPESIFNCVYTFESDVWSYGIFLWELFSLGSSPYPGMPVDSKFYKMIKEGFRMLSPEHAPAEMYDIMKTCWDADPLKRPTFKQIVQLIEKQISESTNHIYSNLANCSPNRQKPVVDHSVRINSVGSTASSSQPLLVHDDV
Outline: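 Enzyme: GST-fused, N-terminally tagged cKit bearing T670I, with TEV cleavage site. Reaction started by mixing compound dilutions with reaction mix; activity read continuously over 5 h at 30 °C as loss of 340 nm absorbance from NADH consumption.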

[4] = molecular target: c-KIT kinase (Homo sapiens, UniProt P10721); assay: c-KIT kinase Assay; assay type: biochemical; design: cKIT residues T544-V976; GST (N); TEV cleavage site (internal); purchased deCODE Biostructures; details: enzymatic assay, ATP 200 µM; read-out: KIT (wt) IC50
Chain of c-KIT kinase (P10721 544-976): as the sequence (P10721 544-976 T670I) above, with I127T counted along it
Outline: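 This continuous spectrophotometric assay tracked c-KIT kinase turnover through NADH consumption at 340 nm, recorded for 2 hours at 30 °C. The enzyme construct from deCODE Biostructures carried an N-terminal tag, a GST-fusion sequence and a TEV cleavage site. Percent inhibition came from reaction rates over 0 to 1 h relative to a no-compound control, and IC50 values were derived with GraphPad Prism.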

[5] = molecular target: T4, c-KIT V654A kinase (Homo sapiens, UniProt P10721, V654A); assay: c-KIT V654A Kinase Assay; assay type: biochemical; details: enzymatic assay, ATP 200 µM
T4 construct: residues T544-V976 with N-terminal GST fusion; purchased deCODE Biostructures
T4 sequence (P10721 544-976 V654A): as the sequence (P10721 544-976 T670I) above, with V111A, I127T counted along it
Outline: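 Kinase activity tracked by coupled NADH consumption, monitored continuously at 340 nm over 6 h at 30 °C after serially diluted compound was mixed in to start inhibition. Enzyme used was a GST-fused, N-terminally tagged cKIT T544–V976 construct with a TEV cleavage site.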

[6] = molecular target: T5, c-KIT D816H kinase (Homo sapiens, UniProt P10721, D816H); assay: c-KIT D816H Kinase Assay; assay type: biochemical; details: enzymatic assay, ATP 200 µM
T5 construct: The construct contains residues T544-V976 of cKit; GST (N); TEV cleavage site (internal); purchased deCODE Biostructures
T5 sequence (P10721 544-976 D816H): as the sequence (P10721 544-976 T670I) above, with I127T, D273H counted along it
Outline: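 Mutant cKit enzyme, expressed as a GST-fusion construct carrying an N-terminal tag and TEV site, was mixed with serially diluted compound to start reactions. Activity tracked via NADH consumption, read continuously at 340 nm over 6 hours at 30 °C.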

[7] = system: Phospho-KIT (Tyr719); assay: GIST430 KIT Western Blot; assay type: cell-based; details: GIST430 cells, 4 hours, serum-free medium; read-out: pKIT suppression by western blot analysi GIST430
Protocol: (§1) GIST48, GIST430, and GIST882 cells were obtained from J. Fletcher (Brigham and Women's Hospital, Boston, MA). GIST T1 cells were obtained from B. Rubin (Cleveland Clinic, Cleveland, OH) and Professor Takahiro Taguchi (Kochi Medical School, Nankoku, Kochi, Japan). […] GIST430 cells were grown in Ham's F10 medium supplemented with 15% characterized fetal bovine serum (Invitrogen, Carlsbad, CA), 30 mg/L bovine pituitary extract (BD Biosciences, San Jose, CA), 0.5% Mito+ serum extender (BD Biosciences, San Jose, CA), 1 unit/mL penicillin G, 1 µg/ml streptomycin, and 0.29 mg/mL L-glutamine at 37 °C, 5%CO2, 95% humidity. GIST T1 cells were grown in DMEM medium supplemented with 10% characterized fetal bovine serum (Invitrogen, Carlsbad, CA), 1 unit/mL penicillin G, 1 µg/ml streptomycin, and 0.29 mg/mL L-glutamine at 37 °C, 5% CO2, and 95% humidity.
(§2) One hundred fifty thousand cells were added per well in a 24-well tissue-culture treated plate. […] Medium was aspirated, cells were washed with PBS, and serum-free Ham's F10 medium was added. […] Cells were washed with PBS, then lysed. Cell lysates were separated by SDS-PAGE and transferred to PVDF. Phospho-KIT (Tyr719) was detected using an antibody from Cell Signaling Technology (Beverly, MA), ECL Plus detection reagent (GE Healthcare, Piscataway, NJ) and a Molecular Devices Storm 840 phosphorimager in fluorescence mode. Blots were stripped and probed for total KIT using an antibody from Santa Cruz Biotech (Santa Cruz, CA). IC50 values were calculated using Prism software (Graphpad, San Diego, CA).

[8] = system: Phospho-KIT (Tyr719); assay: GIST48 KIT Western Blot; assay type: cell-based; details: GIST48 cells, 4 hours, serum-free medium; read-out: pKIT suppression by western blot analysi GIST48
Protocol: as §1
as §2, with “Two” for “One”, “RPMI1640” for “Ham's F10”

[9] = molecular target: T6, Phospho-KIT (Tyr719) (Homo sapiens, UniProt P10721, K642E); assay: GIST882 KIT Western Blot; assay type: cell-based; details: GIST882 cells, 4 hours, serum-free medium; read-out: pKIT suppression by western blot analysi GIST 882
T6 construct: endogenous in cells; host or cells: GIST882
T6 sequence (P10721 26-976 K642E): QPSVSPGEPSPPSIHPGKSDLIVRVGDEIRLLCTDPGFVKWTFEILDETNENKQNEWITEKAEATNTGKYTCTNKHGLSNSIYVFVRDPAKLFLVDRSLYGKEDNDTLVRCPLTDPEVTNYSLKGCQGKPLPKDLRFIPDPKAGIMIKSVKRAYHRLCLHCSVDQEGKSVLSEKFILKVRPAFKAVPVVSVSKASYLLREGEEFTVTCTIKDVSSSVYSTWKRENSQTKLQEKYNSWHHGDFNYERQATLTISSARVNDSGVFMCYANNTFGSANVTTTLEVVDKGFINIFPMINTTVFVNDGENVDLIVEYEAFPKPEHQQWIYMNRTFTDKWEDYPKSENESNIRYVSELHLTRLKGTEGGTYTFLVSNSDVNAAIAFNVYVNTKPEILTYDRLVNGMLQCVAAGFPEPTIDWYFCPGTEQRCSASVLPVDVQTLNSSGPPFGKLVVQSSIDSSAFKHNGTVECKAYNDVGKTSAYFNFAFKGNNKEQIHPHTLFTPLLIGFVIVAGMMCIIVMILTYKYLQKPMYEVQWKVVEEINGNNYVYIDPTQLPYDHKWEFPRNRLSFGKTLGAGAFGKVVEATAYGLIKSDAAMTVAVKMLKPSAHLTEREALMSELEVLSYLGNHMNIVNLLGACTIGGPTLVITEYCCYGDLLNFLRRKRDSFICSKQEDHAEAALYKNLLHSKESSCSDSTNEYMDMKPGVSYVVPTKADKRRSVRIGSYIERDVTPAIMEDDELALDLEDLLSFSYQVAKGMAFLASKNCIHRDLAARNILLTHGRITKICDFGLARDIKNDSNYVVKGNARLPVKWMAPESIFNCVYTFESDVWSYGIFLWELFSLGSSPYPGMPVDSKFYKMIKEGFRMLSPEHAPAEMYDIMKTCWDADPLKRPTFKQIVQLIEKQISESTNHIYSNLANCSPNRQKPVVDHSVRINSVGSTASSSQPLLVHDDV
Protocol: as §1
as §2, with “Two” for “One”, “RPMI1640” for “Ham's F10”

T1 sequence (P10721 544-976 D816V): as the sequence (P10721 544-976 T670I) above, with I127T, D273V counted along it

Row | SMILES | IC50 [1] [nM] | IC50 [2] [nM] | IC50 [3] [nM] | IC50 [4] [nM] | IC50 [5] [nM] | IC50 [6] [nM] | IC50 [7] [nM] | IC50 [8] [nM] | IC50 [9] [nM]
1 | CCn1c(=O)c(-c2ccc(F)c(NC(=O)Nc3cccc4ccccc34)c2)cc2cnc(NC)cc21 [Example 2, 1-(5-(1-ethyl-7-(methylamino)-2-oxo-1,2-dihydro-1,6-naphthyridin-3-yl)-2-fluorophenyl)-3-(naphthalen-1-yl)urea] | 100 to 1000 | 100 to 1000 | < 10 |  |  |  |  |  | 
2 | CNc1cc2c(cn1)cc(-c1ccc(F)c(NC(=O)Nc3ccccc3)c1)c(=O)n2C(C)C [Example 5, 1-(2-fluoro-5-(1-isopropyl-7-(methylamino)-2-oxo-1,2-dihydro-1,6-naphthyridin-3-yl)phenyl)-3-phenylurea] | 100 to 1000 | 100 to 1000 |  |  |  |  |  |  | 
3 | CNc1cc2c(cn1)cc(-c1cc(NC(=O)Nc3ccccc3)c(F)cc1Cl)c(=O)n2C [Example 7, 1-(4-chloro-2-fluoro-5-(1-methyl-7-(methylamino)-2-oxo-1,2-dihydro-1,6-naphthyridin-3-yl)phenyl)-3-phenylurea] | 10 to 100 | 10 to 100 | 10 to 100 |  |  |  |  |  | 
4 | CNc1cc2c(cn1)cc(-c1cc(NC(=O)Nc3cccc4ccccc34)c(F)cc1Cl)c(=O)n2C [Example 8, 1-(4-chloro-2-fluoro-5-(1-methyl-7-(methylamino)-2-oxo-1,2-dihydro-1,6-naphthyridin-3-yl)phenyl)-3-(naphthalen-1-yl)urea] | 10 to 100 | 100 to 1000 | 10 to 100 |  |  |  |  |  | 
5 | CNc1cc2c(cn1)cc(-c1cc(NC(=O)Nc3cccc(C#N)c3)c(F)cc1Cl)c(=O)n2C [Example 9, 1-(4-chloro-2-fluoro-5-(1-methyl-7-(methylamino)-2-oxo-1,2-dihydro-1,6-naphthyridin-3-yl)phenyl)-3-(3-cyanophenyl)urea] | 10 to 100 | 10 to 100 | 10 to 100 | < 10 |  |  |  |  | 
6 | CNc1cc2c(cn1)cc(-c1cc(NC(=O)Nc3cccc(F)c3F)c(F)cc1Cl)c(=O)n2C [Example 10, 1-(4-chloro-2-fluoro-5-(1-methyl-7-(methylamino)-2-oxo-1,2-dihydro-1,6-naphthyridin-3-yl)phenyl)-3-(2,3-difluorophenyl)urea] | 10 to 100 | 10 to 100 | 10 to 100 |  |  |  |  |  | 
7 | CCn1c(=O)c(-c2ccc(F)c(NC(=O)Nc3cccc(C#N)c3)c2)cc2cnc(NC)cc21 [Example 12, 1-(3-cyanophenyl)-3-(5-(1-ethyl-7-(methylamino)-2-oxo-1,2-dihydro-1,6-naphthyridin-3-yl)-2-fluorophenyl)urea] | > 1000 | 100 to 1000 |  |  |  |  |  |  | 
8 | CNc1cc2c(cn1)cc(-c1cc(NC(=O)Nc3csc4ccccc34)c(F)cc1C)c(=O)n2C [Example 13, 1-(benzo[b]thiophen-3-yl)-3-(2-fluoro-4-methyl-5-(1-methyl-7-(methylamino)-2-oxo-1,2-dihydro-1,6-naphthyridin-3-yl)phenyl)urea] | 10 to 100 | < 10 | 10 to 100 |  |  |  |  |  | 
9 | CCn1c(=O)c(-c2cc(NC(=O)Nc3cccc(C#N)c3)c(F)cc2F)cc2cnc(NC)cc21 [Example 18, 1-(3-cyanophenyl)-3-(5-(1-ethyl-7-(methylamino)-2-oxo-1,2-dihydro-1,6-naphthyridin-3-yl)-2,4-difluorophenyl)urea] | 100 to 1000 | 10 to 100 | 10 to 100 | < 10 |  |  |  |  | 
10 | CCn1c(=O)c(-c2cc(NC(=O)Nc3csc4ccccc34)c(F)cc2F)cc2cnc(NC)cc21 [Example 19, 1-(benzo[b]thiophen-3-yl)-3-(5-(1-ethyl-7-(methylamino)-2-oxo-1,2-dihydro-1,6-naphthyridin-3-yl)-2,4-difluorophenyl)urea] | < 10 | 10 to 100 |  | < 10 |  |  |  |  | 
11 | CCn1c(=O)c(-c2c(Cl)ccc(NC(=O)Nc3ccccc3)c2F)cc2cnc(NC)cc21 [Example 26, 1-(4-chloro-3-(1-ethyl-7-(methylamino)-2-oxo-1,2-dihydro-1,6-naphthyridin-3-yl)-2-fluorophenyl)-3-phenylurea] | > 1000 | > 1000 |  | 10 to 100 |  |  |  |  | 
12 | CCn1c(=O)c(-c2cc(NC(=O)Nc3ccccc3)ccc2Cl)cc2cnc(NC)cc21 [Example 33, 1-(4-chloro-3-(1-ethyl-7-(methylamino)-2-oxo-1,2-dihydro-1,6-naphthyridin-3-yl)phenyl)-3-phenylurea] | 10 to 100 | 100 to 1000 | 100 to 1000 | < 10 | < 10 | 10 to 100 | 10 to 100 |  | 
13 | CCn1c(=O)c(-c2cc(NC(=O)Nc3ccccc3)c(F)cc2F)cc2cnc(NCCOC)cc21 [Example 36, 1-(5-(1-ethyl-7-(2-methoxyethylamino)-2-oxo-1,2-dihydro-1,6-naphthyridin-3-yl)-2,4-difluorophenyl)-3-phenylurea] | 10 to 100 | 10 to 100 | 100 to 1000 | < 10 | 10 to 100 | 10 to 100 | 100 to 1000 | 100 to 1000 | 
14 | CCn1c(=O)c(-c2cc(NC(=O)Nc3cccc(F)c3)c(F)cc2C)cc2cnc(NC3CC3)cc21 [Example 45, 1-(5-(7-(cyclopropylamino)-1-ethyl-2-oxo-1,2-dihydro-1,6-naphthyridin-3-yl)-2-fluoro-4-methylphenyl)-3-(3-fluorophenyl)urea] | 10 to 100 | > 1000 | 10 to 100 | < 10 | 10 to 100 | 10 to 100 |  |  | 
15 | CCn1c(=O)c(-c2cc(NC(=O)Nc3ccccc3)c(F)cc2Cl)cc2cnc(NC(=O)N3CC[C@@H](N(C)C)C3)cc21 [Example 84, (R)-N-(3-(2-chloro-4-fluoro-5-(3-phenylureido)phenyl)-1-ethyl-2-oxo-1,2-dihydro-1,6-naphthyridin-7-yl)-3-(dimethylamino)pyrrolidine-1-carboxamide] | 10 to 100 |  | 10 to 100 | < 10 | 100 to 1000 | 10 to 100 | 10 to 100 | 10 to 100 | 10 to 100

From EP3722296B1, “DIHYDRONAPHTHYRIDINES AND RELATED COMPOUNDS USEFUL AS KINASE INHIBITORS FOR THE TREATMENT OF PROLIFERATIVE DISEASES” (Deciphera Pharmaceuticals, LLC, priority 2012, dated 2013)
